Holding throughout (test): NCI tumour cell line growth inhibition, 48 h
Experiment [1] relates to HCT-116 colon.
Experiment [2] relates to HOP-62 NSCLC.
For experiment [3], the system named is ACHN renal.
Experiment [4] has as its system M14 melanoma.
The subject of experiment [5] is HT29 colon.
For experiment [6], the system named is SF-539 CNS.
Experiment [7] concerns 786-0 renal.
For experiment [8], the system named is IGROV1 ovarian.
The subject of experiment [9] is RXF 393 renal.
For experiment [10], the system named is SW-620 colon.

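Step 1: Grow cells in 96-well plates. Step 2: Expose to compound for 48 hours at 5 concentrations. Step 3: Interpolate endpoints linearly; if unreached, use highest concentration. GI50 marks 50% less growth. TGI: total growth inhibition.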

With `C[C@H](CS(C)(=O)=O)Nc1ncc2cc(Oc3ccc(F)cc3F)c(=O)n(C)c2n1`, the GI50 in [1], in [2], in experiment [3], in experiment [4], in experiment [5] and in experiment [6] was greater than 25 µM each time. For the same compound, the GI50 in experiment [7], in experiment [8], in experiment [9] and in experiment [10] was greater than 25 µM in each case. The TGI in [1], in experiment [2], in experiment [3], in experiment [4], in experiment [5] and in experiment [6] was greater than 25 µM throughout. The TGI in experiment [7], in experiment [8], in experiment [9] and in experiment [10] was greater than 25 µM in each case.

On to `Cc1ccc2c(c1)ncn2-c1ncnc2c1CC(C)c1ccccc1N2C` (stereo not given), for which the GI50 in experiment [1] was 0.0669 µM; in experiment [2] it was 0.174 µM; in [3], 0.383 µM; in [4], 0.0587 µM; in [5], 0.0922 µM; in [6] it was 0.0896 µM. Also, the GI50 was 0.487 µM in experiment [7], 0.256 µM in [8], 0.0577 µM in experiment [9] and 0.0435 µM in [10]. For the same compound, the TGI in [1] was 13 µM; in [2] it was 13.6 µM; in [3] it was 12.1 µM; in experiment [4] it was 14.1 µM; in experiment [5] it was 14.5 µM; in [6], 11.6 µM. Further, the TGI in experiment [7] amounted to 14.7 µM; in [8], 7.68 µM; in [9] it was 16.4 µM; in experiment [10], 15.9 µM.

`CC(C)=CC(=O)CC(=O)C(=O)Nc1ccc(Cl)c(Cl)c1`: the TGI in [1], in experiment [2], in experiment [3], in [4], in [5] and in experiment [6] was greater than 100 µM in each case. The TGI in [7], in [8], in [9] and in experiment [10] was greater than 100 µM in each case.

On to `CN(C)C(=O)C1CCC(=C2C(=O)OC(C)(C)OC2=O)N1C` (stereo not given), for which the TGI in [1], in experiment [2], in experiment [3], in experiment [4], in [5] and in [6] was greater than 100 µM each time. The TGI in [7], in [8], in experiment [9] and in experiment [10] was greater than 100 µM each time.

For the compound `O=C1CC2C(=O)N(Cc3ccccc3)C1C(S(=O)(=O)c1ccccc1)C2S(=O)(=O)c1ccccc1` (stereo not given), the TGI in experiment [1] was 15.9 µM; in experiment [2] it was 36.9 µM; in experiment [3], 3.24 µM; in experiment [4], 4.22 µM; in experiment [5], 5.1 µM; in experiment [6] it was 4.18 µM. In addition, the TGI in experiment [7] worked out at 9.68 µM; in experiment [8] it was 36 µM; in [9] it was 3.5 µM; in experiment [10] it was 1.69 µM.

As to `COc1ccc2c(c1)C(=O)c1c-2n(CCCN2CCOCC2)c(=O)c2ccccc12`, the GI50 is 1.66 µM in experiment [1]; 1.7 µM in experiment [2]; 1.69 µM in [3]; 2.85 µM in experiment [4]; 2.19 µM in experiment [5]; 2.17 µM in experiment [6]. In addition, the GI50 is 2.38 µM in experiment [7], 1.87 µM in experiment [8], 3.22 µM in experiment [9] and 2.31 µM in [10]. For the same compound, the TGI is 4.54 µM in experiment [1]; 6.16 µM in experiment [2]; 4.07 µM in experiment [3]; 7.87 µM in experiment [4]; greater than 45 µM in [5]; 5.33 µM in [6]. Also, the TGI was 9.46 µM in experiment [7], greater than 100 µM in [8], greater than 21.6 µM in [9] and greater than 100 µM in experiment [10].

With `C=C(C)[C@@H]1CC[C@@]2(C)[C@H]1[C@H]1CCC3[C@@]4(C)CC[C@H](O)C(C)(C)[C@@H]4CC[C@@]3(C)[C@]1(C)C[C@@H]2O` (stereo not given in full), the TGI in experiment [1], in experiment [2], in [3], in [4], in experiment [5] and in experiment [6] was greater than 100 µM throughout. For the same compound, the TGI in [7], in experiment [8], in experiment [9] and in experiment [10] was greater than 100 µM in each case.

(Values after PubChem BioAssay (NCI).)
